Earlier results as cited in US9827315B2, “Compositions of pharmaceutical actives containing diethylene glycol monoethyl ether or other alkyl derivatives” (THEMIS MEDICARE LIMITED, priority 2013, dated 2017).
Values after ≈ are worked out from the molar mass of the structure shown.

Details: at 25° C.; cited from earlier work
For `CCCCCCCC/C=C\CCCCCCCC(=O)OCC` [Ethyl oleate], the viscosity of vehicle is given as 3.9 Cps. For `CC(=O)S[C@@H]1CC2=CC(=O)CC[C@]2(C)[C@H]2CC[C@@]3(C)[C@@H](CC[C@@]34CCC(=O)O4)[C@H]12` [Spironolactone, 17-hydroxy-7α-mercapto-3-oxo-17α-pregn-4-ene-21-carboxylic acid, γ-lactone acetate], the solubility in water is listed as “about 22 mg/L”.

Same assay, conditions: cited from earlier work
In the case of `Cl.N[C@@H]1CCCCN(c2c(F)cc3c(=O)c(C(=O)O)cn(C4CC4)c3c2Cl)C1` [Besifloxacin], the “solubility in DMSO” value is listed as “Sparingly soluble in methanol, Sparingly soluble in water (1 mg/mL), DMSO (<1 mg/mL)” and the solubility in water is listed as “Sparingly soluble in methanol, Sparingly soluble in water (1 mg/mL), DMSO (<1 mg/mL)”.

Same assay, conditions: dissolved in 30 ml water; cited from earlier work
For `CC[C@H]1OC(=O)[C@H](C)[C@@H](O[C@H]2C[C@@](C)(OC)[C@@H](O)[C@H](C)O2)[C@H](C)[C@@H](O[C@@H]2O[C@H](C)C[C@H](N(C)C)[C@H]2O)[C@](C)(O)C[C@@H](C)/C(=N\OCOCCOC)[C@H](C)[C@@H](O)[C@]1(C)O` [Roxithromycin, (3R,4S,5S,6R,7R,9R,11S,12R,13S,14R)-6-[(2S,3R,4S,6R)-4-d-3-hydroxy-6-methyloxan-2-yl]oxy-14-ethyl-7,12,13-trihydroxy-4-[(2R,4R,5S,6S)-5-hydroxy-4-methoxy-4,6-dimethyloxan-2-yl]oxy-10-(2-methoxyethoxymethoxyimino)-3,5,7,9,11,13-hexamethyl-1-oxacyclotetradecan-2-one], the water solubility is listed as 0.1 g.

Same assay, conditions: water; cited from earlier work
In the case of `C[C@]12Cc3c[nH]nc3C[C@@H]1CC[C@@H]1[C@@H]2CC[C@@]2(C)[C@H]1CC[C@]2(C)O` [Stanozolol], the “Solubility in water (descriptive)” value is listed as “practically insoluble”. In the case of `CCOC(=O)C1=C(COCCN)NC(C)=C(C(=O)OC)C1c1ccccc1Cl` (racemic) [Amlodipine besylate, 3-Ethyl-5-methyl(±)-2-[(2-aminoethoxy)methyl]4-(2-chlorophenyl)-1,4-dihydro-6-methyl-3,5-pyridinedicarboxylate, mono benzene sulphonate], the “Solubility in water (descriptive)” value is listed as “slightly soluble”. In the case of `COCCOC(=O)C1=C(C)NC(C)=C(C(=O)OC(C)C)C1c1cccc([N+](=O)[O-])c1` (stereo not shown) [Nimodipine], the “Solubility in water (descriptive)” value is listed as “Soluble in methanol. Insoluble in water in beta cyclodextrin”. In the case of `C[C@H](CS)C(=O)N1CCC[C@H]1C(=O)O` [Captopril, (2S)-1-[(2S)-2-methyl-3-sulfanylpropanoyl]pyrrolidine-2-carboxylic acid], the “Solubility in water (descriptive)” value is given as “easily soluble”. For “(3R,4S,5S,6R,7R,9R,11S,12R,13S,14S)-6-{[(2S,3R,4S,6R) -4-(dimethylamino)-3-hydroxy-6-methyloxan-2-yl]oxy}-14-ethyl-12,13-dihydroxy-4-{[(2R,4S,5S,6S)-5-hydroxy-4-methoxy-4,6-dimethyloxan-2-yl]oxy}-7-methoxy-3,5,7,9,11,13-hexamethyl-1-oxacyclotetradecane-2,10-dione [Azithromycin]”, the “Solubility in water (descriptive)” value is listed as “practically insoluble”. In the case of `CCC(C)n1ncn(-c2ccc(N3CCN(c4ccc(OC[C@H]5CO[C@](Cn6cncn6)(c6ccc(Cl)cc6Cl)O5)cc4)CC3)cc2)c1=O` (mixture of isomers) [Itraconazole], the “Solubility in water (descriptive)” value is listed as “Soluble in organic solvents such as DMSO and dimethyl formamide. Insoluble in water”. In the case of `CCN(CC)CCOC(=O)C1(C2CCCCC2)CCCCC1` [Dicyclomine Hydrocloride, Dicyclomine], the “Solubility in water (descriptive)” value is listed as “soluble”. In the case of `C#C[C@]1(O)CC[C@H]2[C@@H]3CCc4cc(O)ccc4[C@H]3CC[C@@]21C` [Ethinyl estradiol, 19-nor-17α-pregna-1,3,5(10)-trien-20-yne-3,17-diol], the “Solubility in water (descriptive)” value is listed as “practically insoluble”. For `CCCC(=O)OCOC(=O)C1=C(C)NC(C)=C(C(=O)OC)[C@H]1c1cccc(Cl)c1Cl` [Clevidipine, O3-(butanoyloxymethyl) O5-methyl (4R)-4-(2,3-dichlorophenyl)-2,6-dimethyl-1,4-dihydropyridine-3,5dicarboxylate], the “Solubility in water (descriptive)” value is listed as “practically insoluble”. For `CCCC(=O)O[C@]1(C(=O)COC(C)=O)CC[C@H]2[C@@H]3C[C@H](F)C4=CC(=O)C=C[C@]4(C)[C@@]3(F)[C@@H](O)C[C@@]21C` [Difluprednate], the “Solubility in water (descriptive)” value is listed as “Very low solubility in water”. In the case of `C=CC[C@]1(O)CC[C@H]2[C@@H]3CCC4=CCCC[C@@H]4[C@H]3CC[C@@]21C` [Allyoestrenol, (17β)-17-(prop-2-en-1-yl)estr-4-en-17-ol], the “Solubility in water (descriptive)” value is given as “practically insoluble”. In the case of `O=C(O)COC(=O)Cc1ccccc1Nc1c(Cl)cccc1Cl` [Aceclofenac, 2-[2-[2-[(2,6-dichlorophenyl)amino]phenyl]acetyl]oxyacetic acid], the “Solubility in water (descriptive)” value is listed as “practically insoluble”. In the case of `C[C@H]1[C@H](OC(=O)CCC(=O)[O-])O[C@@H]2O[C@@]3(C)CC[C@H]4[C@H](C)CC[C@@H]1[C@@]24OO3.[Na+]` [sodium Artesunate], the “Solubility in water (descriptive)” value is listed as “soluble”. In the case of `C#C[C@]1(OC(=O)CCCCCC)CC[C@H]2[C@@H]3CCC4=CC(=O)CC[C@@H]4[C@H]3CC[C@@]21C` [Norethisterone enantate, 17alpha-Ethynyl-19-nortestosterone 17-heptanoate], the “Solubility in water (descriptive)” value is listed as “practically insoluble”. For `CC(=O)O[C@]1(C(C)=O)CC[C@H]2[C@@H]3C[C@H](C)C4=CC(=O)CC[C@]4(C)[C@H]3CC[C@@]21C` [MPA, 17α-hydroxy-6α-methylpregn-4-ene-3,20-dione acetate], the “Solubility in water (descriptive)” value is listed as “insoluble”. For `CC(=O)O[C@]1(C(C)=O)CC[C@H]2C3C[C@H](C)C4=CC(=O)C=CC4(C)[C@@]3(F)[C@@H](O)CC21C` (stereo partly shown) [Flurometholone Acetate], the “Solubility in water (descriptive)” value is listed as “Freely soluble in chloroform and acetone, soluble in ethanol, very slightly soluble in water”. In the case of `CCC(=O)O[C@]1(C(=O)SCF)[C@H](C)C[C@H]2[C@@H]3C[C@H](F)C4=CC(=O)C=C[C@]4(C)[C@@]3(F)[C@@H](O)C[C@@]21C` [Fluticasone Propionate], the “Solubility in water (descriptive)” value is given as “It is practically insoluble in water, freely soluble in dimethyl sulfoxide and dimethylformamide, and slightly soluble in methanol and 95% ethanol. Solubility in Diethylene glycol monoethyl ether is 14.7 mg/ml”. For `CC(=O)OCC(=O)[C@@]1(O)CC[C@H]2[C@@H]3CCC4=CC(=O)C=C[C@]4(C)[C@H]3[C@@H](O)C[C@@]21C` [Prednisolone acetate, 11β,17,21-Trihydroxypregna-1,4-diene-3,20-dione 21-acetate], the “Solubility in water (descriptive)” value is given as “practically insoluble”. In the case of `CN1CC(=O)N2[C@H](c3ccc4c(c3)OCO4)c3[nH]c4ccccc4c3C[C@@H]2C1=O` [Tadalafil], the “Solubility in water (descriptive)” value is listed as “Insoluble in water and very slightly soluble in ethanol”. For `CC1=C(C/C=C(\C)CCC[C@H](C)CCC[C@H](C)CCCC(C)C)C(=O)c2ccccc2C1=O` [Phytomenadione, 2-methyl-3-phytyl-1,4-naphthoquinone], the “Solubility in water (descriptive)” value is listed as “insoluble”. For `COc1ccccc1OCC(O)COC(N)=O` (stereo not shown) [Methocarbamol, 3-(2-methoxyphenoxy)-1,2-propanediol 1-carbamate], the “Solubility in water (descriptive)” value is listed as “sparingly soluble”. For `CC[C@H]1OC(=O)[C@H](C)[C@@H](O[C@H]2C[C@@](C)(OC)[C@@H](O)[C@H](C)O2)[C@H](C)[C@@H](O[C@@H]2O[C@H](C)C[C@H](N(C)C)[C@H]2O)[C@](C)(O)C[C@@H](C)/C(=N\OCOCCOC)[C@H](C)[C@@H](O)[C@]1(C)O` [Roxithromycin, (3R,4S,5S,6R,7R,9R,11S,12R,13S,14R)-6-[(2S,3R,4S,6R)-4-d-3-hydroxy-6-methyloxan-2-yl]oxy-14-ethyl-7,12,13-trihydroxy-4-[(2R,4R,5S,6S)-5-hydroxy-4-methoxy-4,6-dimethyloxan-2-yl]oxy-10-(2-methoxyethoxymethoxyimino)-3,5,7,9,11,13-hexamethyl-1-oxacyclotetradecan-2-one], the “Solubility in water (descriptive)” value is given as “almost insoluble”.

Same assay, conditions: with slight warming; cited from earlier work
For `COc1cccc2c1C(=O)c1c(O)c3c(c(O)c1C2=O)C[C@@](O)(C(=O)CO)C[C@@H]3O[C@H]1C[C@H](N)[C@H](O)[C@H](C)O1` [Doxorubicin], the solubility in water is given as 10000 µg/mL (≈ 18.4 mM).
